# Results reported in PMC11906762, “Toward a high-throughput in vitro model for estimating vitreous humor permeability of topically applied drugs” (Scientific Reports, 2025).
# Where a name gives a salt, the structure may show the parent alone.
# Legend:
# [1] = Solubility in PBS buffer (pH 7.4) for PAMPA donor solutions; assay type: physicochemical; settings: PBS pH 7.4; used at 100 µM instead of 250 µM nominal concentration
# [2] = PAMPA with HA-855 + agar (HA 0.07 w/v%; agar 0.095 w/v%) as acceptor medium; settings: for permeability decrease with HA-855 + agar compared with agar alone: cationic compounds, acceptor HA-855 + agar vs agar
# Procedure: Finally, the solutions were stored at room temperature overnight.
# (§1) For each assay 3 replicates per compounds were measured.
# In their study three types of HA-agar hydrogels were investigated with various HA and agar content from rheological and particle migration aspects. Hyaluronate as a viscoelastic polymer is an essential part of the model (as a native component of the VH itself) while agar is used to achieve elasticity and so to mimic the properties of the naturally occurring collagen fibrils. As a result of their study, they found the hydrogel containing 0.7 mg/ml (0.07 w/v%) HA (high molecular weight) and 0.95 mg/ml (0.095 w/v%) agar to be the most similar to bovine VH in the above-mentioned experiments. Since they conducted no permeability measurements with this promising hydrogel, we tested it as an acceptor medium in the PAMPA measurements. To gain further insight, experiments using only agar-containing acceptor phase were also carried out, since the standalone effect of the high molecular weight Na-HA was already investigated.
# [3] = PAMPA with HA-200 (0.1 w/v%) as acceptor medium; settings: HA (HA-200, HA-855; 0.1 w/v%) as acceptor-phase component; very low permeability and interference of HA with absorbance signal
# [4] = PAMPA with freshly excised porcine vitreous humor as acceptor medium; assay type: in vitro ADME; settings: 250 µM API in PBS; UV detection; also after precipitation and filtering
# Procedure: as §1
# There has been an attempt made to use freshly excised porcine vitreous as acceptor medium in the experiments, for three APIs with sufficient absorption at a wavelength closer to the visible range (~ 300 nm) considering the cut-off of VH. […] When preparing the equilibrium solutions, one unit of API solution (250 µM, PBS) was mixed with (approximately) two units of VH. […] To gain clear spectra by removing background components, precipitation was attempted using cold acetonitrile, centrifugation, and filtration. […] The sample preparation process of VH containing samples was not further improved or investigated in this study.
# [5] = Modified corneal-PAMPA, PBS as acceptor medium, UV-vis plate reader; assay type: in vitro ADME; settings: general trend regardless of the acceptor medium
smiles,measurement,setting,value
NC(=O)N1c2ccccc2C=Cc2ccccc21 [carbamazepine],solubility (qualitative),[1],poor solubility
CCN(CC)CCCC(C)Nc1ccnc2cc(Cl)ccc12 (centres unmarked) [chloroquine diphosphate],permeability decrease with HA-855 + agar compared with agar alone,[2],decrease the permeability in a greater extent than agar alone
C[C@@H]1C[C@H]2[C@@H]3CCC4=CC(=O)C=C[C@]4(C)[C@@]3(F)[C@@H](O)C[C@]2(C)[C@@]1(O)C(=O)CO [dexamethasone],detection in the acceptor medium,[3],could not be detected in the acceptor medium
same,solubility (qualitative),[1],poor solubility
O=C(O)Cc1ccccc1Nc1c(Cl)cccc1Cl [diclofenac Na],direction of permeability change against corneal-PAMPA (PBS),[2]; acceptor HA-855 + agar,significant increase
"CNCC[C@H](Oc1cccc2ccccc12)c1cccs1 [duloxetine HCl, duloxetine hydrochloride]",permeability decrease with HA-855 + agar compared with agar alone,[2],decrease the permeability in a greater extent than agar alone
CCn1cc(C(=O)O)c(=O)c2cc(F)c(N3CCNCC3)nc21 [enoxacin],detection in the acceptor medium,[3],could not be detected in the acceptor medium
O=C(c1ccccc1)c1ccc2n1CCC2C(=O)O (centres unmarked) [ketorolac],detection of API in porcine vitreous humor acceptor medium,[4],no API could be detected
same,permeability (qualitative),[5],low permeability
"COc1c(N2C[C@@H]3CCCN[C@@H]3C2)c(F)cc2c(=O)c(C(=O)O)cn(C3CC3)c12 [moxifloxacin, moxifloxacin hydrochloride]",detection of API in porcine vitreous humor acceptor medium,[4],no API could be detected
same,permeability (qualitative),[5],low permeability
"CCCCOc1cc(C(=O)OCCN(CC)CC)ccc1N [oxybuprocaine HCl, oxybuprocaine hydrochloride]",permeability decrease with HA-855 + agar compared with agar alone,[2],decrease the permeability in a greater extent than agar alone
N=C(N)c1ccc(OCCCOc2ccc(C(=N)N)cc2)cc1 [propamidine],detection in the acceptor medium,[3],could not be detected in the acceptor medium
"CC(C)NCC(O)COc1cccc2ccccc12 (centres unmarked) [propranolol HCl, propranolol hydrochloride]",permeability decrease with HA-855 + agar compared with agar alone,[2],decrease the permeability in a greater extent than agar alone
"CNC(=C[N+](=O)[O-])NCCSCc1ccc(CN(C)C)o1 [ranitidine, ranitidine hydrochloride]",detection in the acceptor medium,[3],could not be detected in the acceptor medium
"CCCCNc1ccc(C(=O)OCCN(C)C)cc1 [tetracaine HCl, tetracaine hydrochloride]",permeability decrease with HA-855 + agar compared with agar alone,[2],decrease the permeability in a greater extent than agar alone
"CC(C)(C)NC[C@H](O)COc1nsnc1N1CCOCC1 [timolol, timolol maleate]",permeability decrease with HA-855 + agar compared with agar alone,[2],decrease the permeability in a greater extent than agar alone
